# The source made the active and inactive calls. The rule behind the calls is not given here.
# Experiments:
# Plasmodium falciparum [1] = assay: Antiplasmodial activity against Plasmodium falciparum W2; format: functional, organism-based
# Plasmodium falciparum [2] = assay: Antiplasmodial activity against Plasmodium falciparum FcM29; format: functional, organism-based
# Plasmodium falciparum [3] = assay: Antiplasmodial activity against Plasmodium falciparum F32; format: functional, organism-based
# Plasmodium falciparum [4] = assay: Antiplasmodial activity against Plasmodium falciparum Dd2; format: functional, organism-based
# Plasmodium falciparum [5] = assay: Antiplasmodial activity against chloroquine-resistant Plasmodium falciparum W2 in presence of chloroquine; format: functional
# Mus musculus [6] = assay: Toxicity in Swiss mouse at 1000 mg/kg/day, ip for 4 days measured upto day 30; format: organism-based; parameters: route intraperitoneal; settings: in vivo, 96 h
# Mus musculus [7] = assay: Toxicity in Swiss mouse at 1000 mg/kg/day, po for 4 days measured upto day 30; format: organism-based; parameters: route oral; settings: in vivo, 96 h
# Mus musculus [8] = assay: Toxicity in Swiss mouse at 100 mg/kg/day, ip for 4 days measured upto day 30; format: organism-based; parameters: route intraperitoneal; settings: in vivo, 96 h
# Mus musculus [9] = assay: Toxicity in Swiss mouse at 250 mg/kg/day, ip for 4 days measured upto day 30; format: organism-based; parameters: route intraperitoneal; settings: in vivo, 96 h
# Plasmodium falciparum [10] = assay: Antiplasmodial activity against Plasmodium falciparum FcB1; format: functional, organism-based; settings: FcB1/Columbia
# Monocyte = assay: Antioxidant activity in human Monocyte assessed as reduced in PMA-induced ROS production at 3.3 uM by chemiluminescence assay; format: functional, cell-based
# Plasmodium falciparum [11] = assay: Antiplasmodial activity against […] Plasmodium falciparum Dd2 assessed as 50% revertant concentration required for mefloquine resistant; format: functional
# Plasmodium falciparum [12] = assay: Antiplasmodial activity against chloroquine-resistant Plasmodium falciparum W2 in presence of artesunate; format: functional
# KB = assay: Cytotoxicity against human KB cells at 100 uM by MTS assay; format: cell-based
# [13] = test system: Plasmodium vinckei petteri; assay: Antiplasmodial activity against Plasmodium vinckei petteri infected in Swiss mouse assessed as inhibition of parasite growth at 100 mg/kg/day, ip measured on day 5 postinfection; format: functional; settings: 120 h, route intraperitoneal
# [14] = test system: Plasmodium vinckei petteri; assay: Antiplasmodial activity against Plasmodium vinckei petteri infected in Swiss mouse assessed as recrudescence of malaria at 5 mg/kg/day, ip measured upto day 60 postinfection; format: functional, organism-based
# [15] = test system: Plasmodium vinckei petteri; assay: Antiplasmodial activity against Plasmodium vinckei petteri infected in Swiss mouse assessed as inhibition of parasite growth at 1 mg/kg/day, po measured on day 4 postinfection; format: functional, organism-based
# Plasmodium falciparum [16] = assay: Antiplasmodial activity against chloroquine-resistant Plasmodium falciparum W2 in presence of atovaquone; format: functional
# [17] = test system: Plasmodium vinckei petteri; assay: Antiplasmodial activity against Plasmodium vinckei petteri infected in Swiss mouse assessed as recrudescence of malaria at 50 mg/kg/day, ip measured upto day 60 postinfection; format: functional, organism-based
# [18] = test system: Plasmodium vinckei petteri; assay: Antiplasmodial activity against Plasmodium vinckei petteri infected in Swiss mouse assessed as inhibition of parasite growth at 50 mg/kg/day, po measured on day 4 postinfection; format: functional, organism-based
# Plasmodium falciparum [19] = assay: Antiplasmodial activity against chloroquine-resistant Plasmodium falciparum W2 in presence of artemisinin; format: functional
# [20] = test system: Plasmodium vinckei petteri; assay: Antiplasmodial activity against Plasmodium vinckei petteri infected in Swiss mouse assessed as mortality at 100 mg/kg, po treated 4 days after infection measured on day 7 postinfection; format: functional, organism-based; parameters: dose 100 mg/kg
# Plasmodium falciparum [21] = assay: Antiplasmodial activity against chloroquine-resistant Plasmodium falciparum W2 in presence of mefloquine; format: functional
# [22] = test system: Plasmodium vinckei petteri; assay: Antiplasmodial activity against Plasmodium vinckei petteri infected in Swiss mouse assessed as survival at 10 mg/kg, ip treated 4 days before infection measured on day 6 postinfection; format: functional, organism-based; parameters: dose 10 mg/kg
# Mus musculus [23] = assay: Toxicity in Swiss mouse at 500 mg/kg/day, po for 4 days measured upto day 30; format: organism-based; parameters: route oral; settings: in vivo, 96 h
# Vero = assay: Cytotoxicity against Vero cells at 100 uM by MTS assay; format: cell-based; settings: chlorocebus sabaeus
# Plasmodium falciparum [24] = assay: Antiplasmodial activity against Plasmodium falciparum FcM29 assessed as inhibition of parasite growth at 180 nM in presence of 0.87 uM N-acetyl-L-cysteine; format: functional, organism-based
# Mus musculus [25] = assay: Toxicity in Swiss mouse at 250 mg/kg/day, po for 4 days measured upto day 30; format: organism-based; parameters: route oral; settings: in vivo, 96 h
# [26] = test system: Plasmodium vinckei petteri; assay: Antiplasmodial activity against Plasmodium vinckei petteri infected in Swiss mouse assessed as recrudescence of malaria at 100 mg/kg/day, ip measured upto day 60 postinfection; format: functional, organism-based
# [27] = test system: Plasmodium vinckei petteri; assay: Antiplasmodial activity against Plasmodium vinckei petteri infected in Swiss mouse assessed as survival at 10 mg/kg, ip treated 4 days before infection measured on day 9 postinfection; format: functional, organism-based; parameters: dose 10 mg/kg
# Mus musculus [28] = assay: Toxicity in Swiss mouse at 100 mg/kg/day, po for 4 days measured upto day 30; format: organism-based; parameters: route oral; settings: in vivo, 96 h
# [29] = test system: Plasmodium vinckei petteri; assay: Antiplasmodial activity against Plasmodium vinckei petteri infected in Swiss mouse assessed as inhibition of parasite growth at 50 mg/kg/day, ip measured on day 4 postinfection; format: functional; settings: 96 h, route intraperitoneal
# Mus musculus [30] = assay: Toxicity in Swiss mouse at 500 mg/kg/day, ip for 4 days measured upto day 30; format: organism-based; parameters: route intraperitoneal; settings: in vivo, 96 h
# [31] = test system: Plasmodium vinckei petteri; assay: Antiplasmodial activity against Plasmodium vinckei petteri infected in Swiss mouse assessed as inhibition of parasite growth at 100 mg/kg/day, po measured on day 5 postinfection; format: functional, organism-based
# MRC5 = assay: Cytotoxicity against human MRC5 cells at 100 uM by MTS assay; format: cell-based; settings: mrc5, 100 µM
# Plasmodium falciparum [32] = assay: Antiplasmodial activity against chloroquine-resistant Plasmodium falciparum W2 assessed as 50% revertant concentration required for chloroquine susceptibility; format: functional
smiles,measurement,setting,value
C[C@@H]1CC[C@H]2[C@@H](C)C(=O)O[C@@H]3O[C@@]4(C)CC[C@@H]1[C@]32OO4 [ARTEMISININ],IC50,Plasmodium falciparum [1],13.3 nM
same,IC50,Plasmodium falciparum [2],12.2 nM
same,IC50,Plasmodium falciparum [3],12.5 nM
same,IC50,Plasmodium falciparum [4],13.5 nM
O=c1oc2c(O)c(O)cc3c(=O)oc4c(O)c(O)cc1c4c23 [ELLAGIC ACID],FIC50,Plasmodium falciparum [5],0.63
same,Activity,Mus musculus [6],Non-toxic
same,Activity,Mus musculus [7],Non-toxic
same,Activity,Mus musculus [8],Non-toxic
same,Activity,Mus musculus [9],Non-toxic
same,IC50,Plasmodium falciparum [10],300 nM
same,IC50,Plasmodium falciparum [1],330 nM
same,Activity,Monocyte,Active
same,Activity,Plasmodium falciparum [11],5 ng/mL
same,FIC50,Plasmodium falciparum [12],0.57
same,Activity,KB,Non-toxic
same,inhibition in vivo at 100 mg/kg/day,[13],100%
same,Activity,[14],Active
same,Activity,[15],Active
same,FIC50,Plasmodium falciparum [16],0.53
same,Activity,[17],Active
same,IC50,Plasmodium falciparum [2],180 nM
same,IC50,Plasmodium falciparum [3],330 nM
same,IC50,Plasmodium falciparum [4],105 nM
same,Activity,[18],Active
same,FIC50,Plasmodium falciparum [19],1.26
same,Activity,[20],inactive
same,FIC50,Plasmodium falciparum [21],0.64
same,Activity,[22],Active
same,Activity,Mus musculus [23],Non-toxic
same,Activity,Vero,Non-toxic
same,Activity,Plasmodium falciparum [24],inactive
same,Activity,Mus musculus [25],Non-toxic
same,Activity,[26],Active
same,Activity,[27],Active
same,Activity,Mus musculus [28],Non-toxic
same,inhibition in vivo at 50 mg/kg/day,[29],100%
same,Activity,Mus musculus [30],Non-toxic
same,Activity,[31],Active
same,Activity,MRC5,Non-toxic
OC1(c2ccc(Cl)c(C(F)(F)F)c2)CCN(CCCC(c2ccc(F)cc2)c2ccc(F)cc2)CC1 [PENFLURIDOL],Activity,Plasmodium falciparum [11],96 ng/mL
COc1ccc(CCN(C)CCCC(C#N)(c2ccc(OC)c(OC)c2)C(C)C)cc1OC (stereo unspecified) [VERAPAMIL],Activity,Plasmodium falciparum [32],0.31 µM
